Experimental data from US8063221B2, “Aminoquinolones as GSK-3 inhibitors” (Kyorin Pharmaceutical Co., Ltd., priority 2006, dated 2011).
≈ marks a conversion by molar mass, not a printed value. Read-outs that look alike come from different tables or passages of the source.

Experiments:
[1] = molecular target: T1, recombinant full-length human GSK3β (Homo sapiens, UniProt P49841); assay: Luciferase-coupled cell-free GSK3β kinase assay; assay type: biochemical
T1 construct: recombinant full-length human GSK3β (Upstate); purchased Upstate
T1 sequence (P49841 whole entry): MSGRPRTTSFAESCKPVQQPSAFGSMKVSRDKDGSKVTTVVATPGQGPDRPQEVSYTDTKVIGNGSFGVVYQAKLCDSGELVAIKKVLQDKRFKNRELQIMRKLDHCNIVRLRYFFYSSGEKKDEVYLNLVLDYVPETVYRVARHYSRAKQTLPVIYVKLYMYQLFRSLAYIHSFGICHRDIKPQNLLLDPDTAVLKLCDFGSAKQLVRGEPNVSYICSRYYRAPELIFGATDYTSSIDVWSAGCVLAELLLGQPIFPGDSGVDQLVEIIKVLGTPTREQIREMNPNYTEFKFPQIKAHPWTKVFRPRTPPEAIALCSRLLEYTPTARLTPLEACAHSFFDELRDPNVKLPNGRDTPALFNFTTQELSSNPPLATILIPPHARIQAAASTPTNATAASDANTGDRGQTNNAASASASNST
Experimental: For compounds in Tables 1 and 2, IC50 (μM) for GSK3β enzyme in cell free assay is provided as follows:
Luciferase-Coupled Protein Kinase Assays
All coupled-luciferase assays are performed by using a brief incubation with firefly luciferase (Promega) after completion of the kinase assay. KinaseGlo Plus is used for reading kinase reactions with ATP>10 μM, KinaseGlo for ATP <10 μM. The assay volume in a 384-well plate for the kinase reaction is 30 microliters.
10-25 ng of recombinant full-length human GSK3β (Upstate) is incubated in the presence or absence of compound at varying concentrations for 1 hour at 30 degrees Celsius in 20 mM MOPS, pH 7.0, 10 mM magnesium acetate, 0.2 mM EDTA, 2 mM EGTA, 30 mM magnesium chloride, 62.5 μM phospho-glycogen synthase peptide-2, 5 μM ATP, 10 mM β-glycerol phosphate, 1 mM sodium orthovanadate and 1 mM dithiothreitol. Proceed to KinaseGlo luciferase reaction (see below).
Following the completion of the kinase reaction an equal volume of KinaseGlo or KinaseGlo Plus luciferase reagent (Promega) is added and the luminescence read using a luminescence plate reader within 5-10 minutes. Compound activity is expressed as % inhibition relative to maximal inhibition observed at the maximal dose and IC50 values then calculated using curve fitting software (GraphPad Prizm).

E. coli, ATCC8739 = assay: Antibacterial activity (MIC), E. coli; assay type: cell-based; settings: Escherichia coli
Source text: (§1) As used herein, a minimum inhibitory concentration (MIC) for bacterial growth assay is the lowest level of a compound needed to cause an inhibition to bacterial growth in culture medium. In certain embodiments, the antibacterial activity of compounds herein, measured as MIC.
(§2) In certain embodiments, GSK3 inhibitors provided herein are substantially free of antibacterial activity or having very low antibacterial activity. The antibacterial activity can be measured by methods known in the art by estimating a minimum inhibitory concentration (MIC) for test compounds. A MIC is the lowest level of a compound needed to cause an inhibition to bacterial growth in a culture medium. […] (Clinical and Laboratory Standards Institute. Methods for Dilution Antimicrobial Susceptibility Tests for Bacteria That Grow Aerobically; Approved Standard-Sixth Edition: CLSI document […]. CLSI, Wayne, Pa. (2003))
(§3) Antibacterial activity for E. coli, ATCC8739 andS. aureus Smith expressed as MIC (μM) is provided as follows: […]

S. aureus Smith = assay: Antibacterial activity (MIC), S. aureus; assay type: cell-based; settings: Staphylococcus aureus
Source text: as §1, §2, §3

[2] = ATCC8739, Table 2, E. coli ATCC8739, read-out: Antimicrobial MIC [μM] E. Coli
[3] = Table 2, S. aureus Smith, read-out: Antimicrobial MIC [μM] S. aureus
[4] = ATCC8739, Table 1, E. coli ATCC8739, read-out: Antibacterial MIC (μM) E.Coli
[5] = Table 1, read-out: Antibacterial MIC (μM) S. aureus Smith
[6] = ATCC8739, read-out: Antibacterial MIC (μM) E.Coli
[7] = read-out: Antibacterial MIC (μM) S. aureus Smith

Structure (SMILES)	IC50 ([1]; Table 2) [nM]	MIC (E. coli, ATCC8739; [2]) [µM]	MIC (S. aureus Smith; [3]) [µM]	IC50 ([1]; Table 1) [nM]	MIC (E. coli, ATCC8739; [4]) [µM]	MIC (S. aureus Smith; [5]) [µM]	MIC (E. coli, ATCC8739; [6]) [µM]	MIC (S. aureus Smith; [7]) [µM]
CC1(C)Cn2cc(C(=O)O)c(=O)c3c(N)c(F)c(NCCCn4cnc5ccccc54)c(c32)O1 [compound 56]	100 to 500	10 to 50 (≈ 4.65 to 23.3 µg/mL)	10 to 50 (≈ 4.65 to 23.3 µg/mL)	–	–	–	–	–
COc1c(NCCCn2ccnc2)c(F)c(N)c2c(=O)c(C(=O)O)cn(C3CCCC3)c12 [compound 78]	–	–	–	500 to 1000	> 50	> 50	–	–
COc1c(NCCNc2ccccn2)c(F)c(N)c2c(=O)c(C#N)cn(C3CC3)c12 [Example 142]	< 100	> 50	> 50	–	–	–	–	–
CC1COc2c(NCCCn3cnc4ccccc43)c(F)c(N)c3c(=O)c(C(=O)O)cn1c23 (stereo not drawn) [compound 6]	< 100	10 to 50 (≈ 4.51 to 22.6 µg/mL)	0.5 to 10 (≈ 0.226 to 4.51 µg/mL)	–	–	–	–	–
CC(C)(C)OC(=O)NCCNc1c(F)c(N)c2c(=O)ccn(C3CC3)c2c1F [compound 29]	–	–	–	100 to 500	> 50	> 50	–	–
CCOC(=O)CCNc1c(F)c(N)c2c(=O)ccn(C3CC3)c2c1OC [Example 125]	100 to 500	> 50	> 50	–	–	–	–	–
COc1c(NCCc2ccncc2)c(F)c(N)c2c(=O)c(C(=O)O)cn(C3CC3)c12 [compound 68]	–	–	–	500 to 1000	10 to 50 (≈ 4.12 to 20.6 µg/mL)	0.5 to 10 (≈ 0.206 to 4.12 µg/mL)	–	–
Nc1c(F)c(NCCc2ccncc2)c(F)c2c1c(=O)ccn2C1CCCC1 [compound 73]	–	–	–	< 100	> 50	> 50	–	–
CC(C)OCCCNc1c(F)c(N)c2c(=O)ccn(C3CCCC3)c2c1F [compound 75]	–	–	–	100 to 500	> 50	> 50	–	–
Nc1c(F)c(NCCNc2ccccn2)c(F)c2c1c(=O)c(C(=O)O)cn2CCc1ccccc1 [compound 49]	–	–	–	100 to 500	–	–	10 to 50 (≈ 4.79 to 24 µg/mL)	10 to 50 (≈ 4.79 to 24 µg/mL)
COc1c(NCCCc2ccccc2)c(F)c(N)c2c(=O)c(C(=O)O)cn(C3CCCC3)c12 [compound 79]	–	–	–	100 to 500	–	–	10 to 50 (≈ 4.54 to 22.7 µg/mL)	10 to 50 (≈ 4.54 to 22.7 µg/mL)
CC1(C)COc2c(NCCCn3cnc4ccccc43)c(F)c(N)c3c(=O)c(C(=O)O)cn1c23 [compound 37]	< 100	0.5 to 10 (≈ 0.233 to 4.65 µg/mL)	0.5 to 10 (≈ 0.233 to 4.65 µg/mL)	–	–	–	–	–
CC1COc2c(NCCNc3nc(F)c(F)cc3F)c(F)c(N)c3c(=O)c(C(=O)O)cn1c23 (stereo not drawn) [compound 13]	< 100	10 to 50 (≈ 4.67 to 23.4 µg/mL)	0.5 to 10 (≈ 0.234 to 4.67 µg/mL)	–	–	–	–	–
C[C@H]1COc2c(NCCCn3cnc4ccccc43)c(F)c(N)c3c(=O)c(C(=O)O)cn1c23 [compound 19]	< 100	10 to 50 (≈ 4.51 to 22.6 µg/mL)	0.5 to 10 (≈ 0.226 to 4.51 µg/mL)	–	–	–	–	–
Nc1c(F)c(NCCCn2ccnc2)c(F)c2c1c(=O)ccn2C1CCCC1 [compound 74]	–	–	–	< 100	> 50	> 50	–	–
COc1c(NCCCc2ccccc2)c(F)c(N)c2c(=O)c(C(=O)O)cn(C3CC3)c12 [compound 67]	–	–	–	< 100	10 to 50 (≈ 4.25 to 21.3 µg/mL)	0.5 to 10 (≈ 0.213 to 4.25 µg/mL)	–	–
C[C@@H]1COc2c(NCCNc3ccccn3)c(F)c(N)c3c(=O)c(C(=O)O)cn1c23 [compound 30]	500 to 1000	> 50	> 50	–	–	–	–	–
CC1(C)Cn2cc(C(=O)O)c(=O)c3c(N)c(F)c(NCCCc4ccccc4)c(c32)O1 [compound 59]	100 to 500	10 to 50 (≈ 4.25 to 21.3 µg/mL)	10 to 50 (≈ 4.25 to 21.3 µg/mL)	–	–	–	–	–
Nc1c(F)c(NCCNc2ccccn2)c(F)c2c1c(=O)ccn2CCc1ccccc1 [compound 63]	–	–	–	100 to 500	10 to 50 (≈ 4.35 to 21.8 µg/mL)	10 to 50 (≈ 4.35 to 21.8 µg/mL)	–	–
CC1COc2c(NCCNc3cccc(C(F)(F)F)n3)c(F)c(N)c3c(=O)c(C(=O)O)cn1c23 (stereo not drawn) [compound 12]	< 100	10 to 50 (≈ 4.81 to 24.1 µg/mL)	0.5 to 10 (≈ 0.241 to 4.81 µg/mL)	–	–	–	–	–
CC1(C)COc2c(NCCNc3cccc4ccccc34)c(F)c(N)c3c(=O)c(C(=O)O)cn1c23 [compound 36]	< 100	10 to 50 (≈ 4.77 to 23.8 µg/mL)	10 to 50 (≈ 4.77 to 23.8 µg/mL)	–	–	–	–	–
